From publication PMC11410943 (Nature Communications, 2024)
Converted amounts (≈) assume the structure as drawn. Read-outs that look alike come from different tables or passages of the source.

Legend:
Citrobacter spp. = assay: MIC; settings: IHMA/CARB-X MDR clinical isolates 2019, N=151
K. pneumoniae [1] = assay: Killing kinetics assay; type: cell-based; settings: 0.5X to 16X MIC, susceptible and MDR strains
[2] = Hepatocyte stability / intrinsic clearance; type: in vitro ADME, monkey
P. aeruginosa [3] = assay: Killing kinetics assay; type: cell-based; settings: 0.5X to 16X MIC, susceptible and MDR strains
[4] = IVIVE of clearance in humans; set-up: species or system human
[5] = Blood-brain barrier crossing
K. pneumoniae [6] = assay: Neutropenic mouse; type: in vivo; settings: SC every 8 h, wild-type and MDR isolates
[7] = Prediction of human PK by allometry / 2-compartment model; settings: 70 kg
[8] = Hepatocyte stability / intrinsic clearance; type: in vitro ADME, rat
CYP3A4 = CYP3A4 (Homo sapiens, UniProt P08684); assay: CYP reaction phenotyping; type: in vitro ADME
P. aeruginosa [9] = assay: Neutropenic rat lung infection model; settings: IV infusion, MDR isolates
[10] = First-in-human SAD study, safety and tolerability; type: in vivo, healthy human volunteers; settings: single IV infusion 120-1050 mg
Permeability = type: in vitro ADME
Escherichia coli = assay: MIC
hERG = hERG (Homo sapiens, UniProt Q12809); assay: hERG manual patch-clamp; type: cell-based
E. coli = assay: Killing kinetics assay; type: cell-based; settings: 0.5X to 16X MIC, susceptible and MDR strains
Klebsiella pneumoniae = assay: MIC
P. aeruginosa [11] = assay: Neutropenic mouse; type: in vivo
[12] = IHMA/CARB-X MDR clinical isolates 2019, N=300

Sequence of hERG (Q12809 whole entry): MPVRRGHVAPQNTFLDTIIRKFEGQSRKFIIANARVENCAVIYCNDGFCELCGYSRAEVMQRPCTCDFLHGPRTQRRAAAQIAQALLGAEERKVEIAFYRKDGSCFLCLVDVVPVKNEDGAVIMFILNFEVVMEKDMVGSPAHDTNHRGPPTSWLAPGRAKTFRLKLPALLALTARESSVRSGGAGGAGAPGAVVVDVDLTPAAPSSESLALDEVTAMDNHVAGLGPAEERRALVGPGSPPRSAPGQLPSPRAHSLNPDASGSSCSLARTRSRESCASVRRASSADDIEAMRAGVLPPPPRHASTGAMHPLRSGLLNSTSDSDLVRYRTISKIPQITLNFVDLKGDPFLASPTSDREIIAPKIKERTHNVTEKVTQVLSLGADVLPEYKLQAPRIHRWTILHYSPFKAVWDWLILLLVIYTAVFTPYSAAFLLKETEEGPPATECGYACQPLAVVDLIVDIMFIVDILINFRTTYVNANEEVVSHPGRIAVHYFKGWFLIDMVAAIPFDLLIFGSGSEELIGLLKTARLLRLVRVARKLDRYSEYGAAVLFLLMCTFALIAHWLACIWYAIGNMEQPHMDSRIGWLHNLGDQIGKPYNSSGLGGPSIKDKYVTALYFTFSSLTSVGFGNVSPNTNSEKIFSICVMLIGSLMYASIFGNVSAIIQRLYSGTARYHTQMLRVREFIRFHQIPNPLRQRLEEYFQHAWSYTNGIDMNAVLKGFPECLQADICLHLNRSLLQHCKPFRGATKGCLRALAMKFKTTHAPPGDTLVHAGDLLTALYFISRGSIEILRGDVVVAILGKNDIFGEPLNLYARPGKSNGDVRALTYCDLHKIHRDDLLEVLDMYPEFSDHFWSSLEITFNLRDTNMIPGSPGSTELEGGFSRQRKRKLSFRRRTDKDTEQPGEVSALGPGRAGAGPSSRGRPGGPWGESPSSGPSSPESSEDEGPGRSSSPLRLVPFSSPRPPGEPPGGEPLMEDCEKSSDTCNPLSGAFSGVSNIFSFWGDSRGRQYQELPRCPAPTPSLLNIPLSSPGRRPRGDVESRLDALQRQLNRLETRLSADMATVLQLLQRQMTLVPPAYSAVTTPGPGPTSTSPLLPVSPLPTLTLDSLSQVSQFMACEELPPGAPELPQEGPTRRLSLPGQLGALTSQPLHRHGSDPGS
Sequence of CYP3A4 (P08684 whole entry, the tested form may be a part): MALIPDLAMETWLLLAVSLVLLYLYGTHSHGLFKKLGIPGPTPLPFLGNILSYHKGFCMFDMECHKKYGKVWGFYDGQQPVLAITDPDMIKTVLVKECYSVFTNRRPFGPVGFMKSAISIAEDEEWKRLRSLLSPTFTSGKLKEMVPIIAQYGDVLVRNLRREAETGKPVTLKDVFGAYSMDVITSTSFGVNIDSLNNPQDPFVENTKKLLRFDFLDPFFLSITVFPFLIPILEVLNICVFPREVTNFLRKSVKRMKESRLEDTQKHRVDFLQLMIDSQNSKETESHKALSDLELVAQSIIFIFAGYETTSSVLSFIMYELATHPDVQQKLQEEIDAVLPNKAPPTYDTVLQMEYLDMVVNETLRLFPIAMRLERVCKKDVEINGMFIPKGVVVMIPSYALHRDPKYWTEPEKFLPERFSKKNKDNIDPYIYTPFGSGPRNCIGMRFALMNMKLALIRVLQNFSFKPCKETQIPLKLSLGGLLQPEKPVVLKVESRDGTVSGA

Cn1c(=O)ccc2ccc(F)c(CCNC[C@H]3CN(c4cnc5c(n4)NC(=O)CO5)C(=O)O3)c21 [BWC0977, 6-[(5S)−5-[[[2-(7-Fluoro-1,2-dihydro-1-methyl-2-oxo-8-quinolinyl)ethyl]amino]methyl]−2-oxo-3-oxazolidinyl]−2H-pyrazino[2,3-b]−1,4-oxazin-3(4H)-one]
MIC90 (Citrobacter spp.): 1 µg/mL (≈ 2.13 µM) | in vitro killing kinetics (K. pneumoniae [1]): significant bactericidal activity | clearance predicted from CLint, % of liver blood flow (LBF) [2]: < 30% | in vitro killing kinetics (P. aeruginosa [3]): significant bactericidal activity | predicted human plasma CLp [4]: 5.5 mL/min/kg | predicted % human LBF ([4]; human LBF […]): 28% | crossing of the blood-brain barrier [5]: nor crosses the blood-brain barrier | dose-ranging efficacy (bacterial burden) (K. pneumoniae [6]): excellent dose-response | predicted human CL [7]: 20.17 L/h | predicted human CLD2 [7]: 1.002 L/h | predicted human V1 [7]: 40.84 L | predicted human V2 [7]: 23.13 L | clearance predicted from CLint, % of liver blood flow (LBF) [8]: < 30% | metabolism by CYP3A4 in reaction phenotyping assay (CYP3A4): 80% | in vitro resistance frequency (A. baumannii): 2.5 × 10^−9 | resistance frequency (A. baumannii): 2.5 × 10^−8 | dose-response efficacy (P. aeruginosa [9]): excellent bactericidal dose-response | tolerability [10]: generally well tolerated | permeability (Permeability): low permeability | MIC (Escherichia coli; Escherichia coli, read-out: median MIC, panel of ATCC strains): 0.03 µg/mL (≈ 0.064 µM) | MIC90 (Escherichia coli; [12]): 0.5 µg/mL (≈ 1.07 µM) | IC50 (hERG): 49.7 µM | in vitro killing kinetics (E. coli): significant bactericidal activity | MIC90 (Klebsiella pneumoniae; [12]): 2 µg/mL (≈ 4.27 µM) | MIC (Klebsiella pneumoniae; Klebsiella pneumoniae, read-out: median MIC, panel of ATCC strains): 0.03 µg/mL (≈ 0.064 µM) | dose-ranging efficacy (bacterial burden) (P. aeruginosa [11]; SC every 8 h, wild-type and MDR isolates): excellent dose-response | PK-PD driver of efficacy (P. aeruginosa [11]; dose fractionation 160 mg/kg/day SC, P. aeruginosa NCTC 13921): free area-under-the-curve over MIC (fAUC/MIC) as the efficacy driver
